In US20190192543A1, “NOVEL USE” (IDOGEN AB, priority 2016, published 2019):

Tested on: IDO1 gene expression in THP-1 cells
Assay: Induction of IDO1 in THP-1 cells (RT-qPCR)
Type: cell-based, human
Conditions: for IDO1 expression (fold change): 96 hours, normalised to HPRT1, vs DMSO control
Experimental: THP-1 cells were harvested from appropriate number of T75 flasks. Cells were counted in a Bürker chamber, stained with 0.4% Trypan Blue. The appropriate number of cells for each experiment were transferred to a new tube and centrifuged at 1200 rpm, 5 min at room temperature (RT). The supernatant was discarded and fresh RPMI with 5% FBS were added to get a cell concentration of 2×10^5 cells/mL. The compound was added to the five separate wells in 6-well plates such that five different final concentrations were obtained after adding the cells. A control was added to one well in the 6-well plate to which cells were added. 1×10^6 cells per well were seeded out to achieve a total volume of 5 mL per well. The cells were incubated at 37° C. in 5% CO2 for 96 hours. After 96 hours the assay was stopped and the cells were lysed for the isolation of RNA.
Total RNA was extracted from THP-1 cells using the RNA RNeasy Mini extraction kit (Qiagen), according to the manufacturer's instructions. A SuperScript® VILO™ RT-kit (Thermo Fisher) was used to reverse transcribe 1 μg of total RNA to cDNA and qPCR was performed. The primers used for amplification of the human IDO1 gene were 5″-[…]-3″ (forward; SEQ ID No. 1) and 5″-[…]-3″ (reverse; SEQ ID No. 2). The primers used for amplification of the endogenous reference gene for human HPRT1 were 5″-[…]-3″ (forward; SEQ ID No. 3) and 5″-[…]-3″ (reverse; SEQ ID No. 4). In brief, RT-qPCR was performed in 20 μl reaction, consisting 10 μl PowerUp SYBR Green Master Mix, 0.5 μM of each primer, 4 μl diluted cDNA for amplification of IDO1 and 1.5 μl diluted cDNA for amplification of HPRT1. An iCycler iQ real-time detection system (Stratagene, Mx3000P, La Jolla, Calif., USA) with the following thermal profile: UDG incubation at 50° C. for 2 min, then denaturation at 95° C. for 5 min, followed by 45 cycles at 94° C. for 15 s, 58° C. for 30 s, and 60° C. for 30 s, was used to perform thermocycling and real-time detection of PCR products. After amplification a melting curve analysis was performed. The RT-qPCR experiments were always run in triplicate. IDO1 was normalised to the geometric means of two HPRT1 reference gene, using the ΔCt method. Within-group comparisons were normalized to one control sample, using the ΔΔCt method.
The procedure under “Induction of IDO1 in THP-1 cells” was followed such that the final concentrations set out in Table 1 were obtained.
Following RNA extraction and quantification of gene expression by RT-qPRC, as described above, induction of IDO1 gene expression using Samples 1 to 6 was investigated.

SMILES: Nc1ncn([C@H]2C[C@H](OP(=O)(O)OC[C@H]3O[C@@H](n4cnc5c(=O)[nH]c(N)nc54)C[C@@H]3O)[C@@H](CO)O2)c(=O)n1 [guadecitabine]
- IDO1 expression (fold change) (0.1 micromolar): 2.1 fold change
- IDO1 expression (fold change) (0.3 micromolar): 4.7 fold change
- IDO1 expression (fold change) (1 micromolar): 34 fold change
- IDO1 expression (fold change) (3 micromolar): 68 fold change
- IDO1 expression (fold change) (10 micromolar): 74 fold change
- increase of IDO1 gene expression (maximum over tested concentrations) (guadecitabine alone, 0.1-10 micromolar, highest induction at 10 micromolar): up to 74 fold
